Experimental findings from paper PMC6151488, “Structure, Absolute Configuration, and Antiproliferative Activity of Abietane and Icetexane Diterpenoids from Salvia ballotiflora” (Molecules : A Journal of Synthetic Chemistry and Natural …, 2017) are described below.

“And” between values parts separate entries of the source, which are not always exact repeats. Equal entries are not always repeated. Where two headings read alike, the source gives them in different places.

Data set [1] has as its system PC-3 (human prostate cancer). Description: Sulforhodamine B (SRB) cytotoxicity assay, PC-3. It counts as cell-based. Conditions: for inhibition at 1 µM: primary screening at 1.0 μM, mean n = 2, read-out: Antiproliferative activity (%), PC-3. From the text: (§1) The natural products were screened in vitro against the following human cancer cell lines: human mammary adenocarcinoma (MCF-7), human chronic myelogenous leukemia (K562), human glioblastoma (U251), human lung adenocarcinoma (SKLU-1), human colon cancer (HCT-15), human prostate cancer (PC-3), healthy gingival human fibroblasts (FGH), and normal monkey kidney cell lines, which were supplied by the National Cancer Institute (NCI, USA) and American Type Culture Collection (ATTC). The human tumor cytotoxicity was determined using the protein-binding dye sulforhodamine B (SRB) in a microculture assay to measure cell growth, as described in the protocol established by the NCI [30]. The cell lines were cultured in RPMI-1640 medium supplemented with 10% fetal bovine serum, 2 mM L-glutamine, 10,000 units/mL penicillin G sodium, 10,000 μg/mL streptomycin sulfate, and 25 μg/mL amphotericin B (Gibco), and 1% non-essential amino acids (Gibco). They were maintained at 37 °C in a humidified atmosphere with 5% CO2. The viability of the cells used in the experiments exceeded 95%, as determined with trypan blue.
(§2) Cytotoxicity after treatment of the tumors cells and normal cells with the test compounds were determined using the protein-binding dye sulforhodamine B (SRB) in a microculture assay to measure cell growth. The cells were removed from the tissue culture flasks by treatment with trypsin, and diluted with fresh media. Of these cell suspensions, 100 μL containing 5000–10,000 cells per well were pipetted into 96-well microtiter plates (Costar) and the material was incubated at 37 °C for 24 h in a 5% CO2 atmosphere. Subsequently, 100 μL of a solution of the compound obtained by diluting the stocks were added to each well. The cultures were exposed to the compound for 48 h. After the incubation period, cells were fixed to the plastic substratum by the addition of 50 μL of cold 50% aqueous trichloroacetic acid. The plates were incubated at 4 °C for 1 h, washed with tap water, and air-dried. The trichloroacetic-acid-fixed cells were stained by the addition of 0.4% SRB. The free SRB solution was then removed by washing with 1% aqueous acetic-acid. The plates were air-dried, and the bound dye was dissolved by the addition of 10 mM unbuffered Tris base (100 μL). The plates were placed on a shaker for 10 min, and the absorption was determined at 515 nm using an ELISA plate reader (Bio-Tex Instruments).
(In general: The SRB assay estimates cell density from bound dye.)

The subject of data set [2] is COS-7 normal monkey kidney. Description: Sulforhodamine B (SRB) cytotoxicity assay, COS-7 normal cell line. Particulars: Primates, mean ± SD. The data set is classed as cell-based.
Text: as §1
as §2, with “The plates were incubated at 4 °C for 1 h, washed with tap water, and air-dried. The trichloroacetic-acid-fixed cells were stained by the addition of 0.4% SRB. The free SRB solution was then removed by washing with 1% aqueous acetic-acid. The plates were air-dried, and the bound dye was dissolved by the addition of 10 mM unbuffered Tris base (100 μL).” left out

The subject of data set [3] is SKLU-1 (human lung adenocarcinoma). Description: Sulforhodamine B (SRB) cytotoxicity assay, SKLU-1. It counts as cell-based. Particulars: for IC50: SRB assay, 48 h exposure, mean ± SD, read-out: IC50 antiproliferative activity, SKLU-1; for inhibition at 1 µM / Antiproliferative activity (%), SKLU-1: primary screening at 1.0 μM; for SI (selectivity index), SKLU-1: quotient of IC50 of COS-7 / IC50 of SKLU-1.
Text: as §1, §2

The test system of data set [4] is K562 (human chronic myelogenous leukemia). Description: Sulforhodamine B (SRB) cytotoxicity assay, K562. The data set is classed as cell-based. Conditions: for inhibition at 1 µM: primary screening at 1.0 μM.
Text: as §1, §2

In data set [5] the test system is TPA-induced ear edema. Description: TPA-induced ear edema test in mice. It counts as in vivo. Conditions: mice CD-1, 1.0 μmol ear^-1 topical, 4 h after TPA, mean ± SEM; for Inhibition of Edema (%): NA = Non-active. The procedure:
Male CD-1 mice weighing 25–30 g were maintained under standard laboratory conditions in the animal house (temperature 24 ± 2 °C) in a 12/12 h light/dark cycle, fed a laboratory diet and water ad libitum, following the Mexican official norm NOM-062-Z00-1999.
The TPA-induced ear edema assay in mice was performed as reported in reference. A solution of TPA (2.5 μg) in ethanol (10 μL) was applied topically to both faces (5 μL each ear) of the right ear of the mice, 10 min after solutions of the test substances in their respective solvents were applied (10 μL each face). The left ear received ethanol (10 μL) first, followed by 20 μL of the respective solvent. The mice were killed with CO2 four hours later. A 7-mm diameter plug was removed from each ear. The swelling was assessed as the difference in weight between the left and the right ear. Control animals received the correspondent solvent in each case. Edema inhibition (EI %) was calculated by the equation EI % = 100 − (B × 100/A), where A is the edema induced by TPA alone and B is the edema induced by TPA plus the sample. Indomethacin and celecoxib were used as reference compounds.

Data set [6] has as its system MCF-7 (human mammary adenocarcinoma). Description: Sulforhodamine B (SRB) cytotoxicity assay, MCF-7. The data set is classed as cell-based.
Text: as §1, §2

A short description of data set [7]: Scavenging activity on free radical DPPH. Conditions: at 100 μM; 30 min, 37 °C. The procedure: Free radical scavenging activity was measured using an adapted method of Mellors and Tappel. The test was carried out in 96-well microplates. A 50-μL aliquot of the solution of the test compound was mixed with 150 μL of an ethanol solution of DPPH (final concentration 100 μM). The mixture was incubated at 37 °C for 30 min, and the absorbance was then measured at 515 nm using a BioTek microplate reader SYNERGY HT. The percent inhibition was determined by comparison with a 100-μM DPPH ethanol blank solution.
(In general: DPPH is a stable violet radical that fades when it is reduced.)

In data set [8] the test system is HCT-15 (human colon cancer). Description: Sulforhodamine B (SRB) cytotoxicity assay, HCT-15. Particulars: for inhibition at 1 µM: primary screening at 1.0 μM, mean n = 2, read-out: Antiproliferative activity (%), HCT-15. The data set is classed as cell-based.
Text: as §1, §2

In data set [9] the test system is U251 (human glioblastoma). Description: Sulforhodamine B (SRB) cytotoxicity assay, U251. Particulars: for inhibition at 1 µM / Antiproliferative activity (%), U251: primary screening at 1.0 μM; for SI (selectivity index), U251: quotient of IC50 of COS-7 / IC50 of U251. The data set is classed as cell-based.
Text: as §1, with “CO2.” for “CO2. The viability of the cells used in the experiments exceeded 95%, as determined with trypan blue.”
as §2

In data set [10] the test system is healthy gingival human fibroblasts (FGH). Description: Sulforhodamine B (SRB) cytotoxicity assay, FGH primary culture. The data set is classed as cell-based. Particulars: primary screening at 50.0 μM; mean n = 2; NC = No cytotoxic.
Text: as §1, with “They were maintained at 37 °C in a humidified atmosphere with 5% CO2.” left out
Cytotoxicity after treatment of the tumors cells and normal cells with the test compounds were determined using the protein-binding dye sulforhodamine B (SRB) in a microculture assay to measure cell growth. […] The plates were placed on a shaker for 10 min, and the absorption was determined at 515 nm using an ELISA plate reader (Bio-Tex Instruments).

The mark [11] stands for this setting: Homo sapiens, SK-LU-1, mean n = 2, read-out: Antiproliferative activity (%), SKLU-1.
Setting [12] is: Homo sapiens, K562, mean n = 2, read-out: Antiproliferative activity (%), K562.
Where [13] appears, read: primary screening at 1.0 μM, mean n = 2, NC = No cytotoxic.
Setting [14] is: Homo sapiens, U-251, mean n = 2, read-out: Antiproliferative activity (%), U251.
Setting [15] is: primary screening at 50.0 μM, mean n = 2, NC = No cytotoxic.

The IC50 is the concentration that inhibits the measured activity by half. Usually melting point stands for the temperature of the solid-liquid transition. Take `CC(=O)OC1CC2C3(CCCC2(C)C(=O)O3)CC2=C1C(=O)C(C(C)C)=C(O)C2=O` (stereo not drawn) [Compound 3, 7α-Acetoxy-6,7-dihydroicetexone]: the melting point is 110 to 115 °C. Also, in data set [1], the inhibition at 1 µM was 34.2%. This compound yielded an IC50 in data set [2] of 1620 ± 100 nM. The IC50 in [3] (Homo sapiens, SK-LU-1, 48 h) was determined as 460 ± 50 nM. In data set [3] (setting [11]), the inhibition at 1 µM was found to be 64.5%. Besides, in [3], the IC50 stood at 820 ± 60 nM and the “SI (selectivity index), SKLU-1” value was found to be 2.0. For the same compound, the “Antiproliferative activity (%), SKLU-1” value in data set [3] (mean n = 2) is listed as “moderately active”. In data set [4] (setting [12]), the inhibition at 1 µM was found to be 48.6%. Besides, in data set [5], the “Edema” value stood at 9.87 ± 0.44 mg; the “Inhibition of Edema (%)” value was 37.4 ± 2.8% and 37.42 ± 2.77 %. Further, the “Antiproliferative activity (%), MCF-7” value in data set [6] (setting [13]) is on record as “non-toxic”. Also, the “DPPH inhibitory effect (%)” value in [7] worked out at 6.1%. Further, the inhibition at 1 µM in [8] is 33.4%. For the same compound, in data set [9] (setting [14]), the inhibition at 1 µM was 65.4%. Besides, the “Antiproliferative activity (%), U251” value in data set [9] (mean n = 2) is recorded as “moderately active”. The “SI (selectivity index), U251” value in [9] came out at 1.2.
For `CC(C)C1=C(O)C(=O)C2=CC3=CCCC4(C)C(=O)OC(C=C2C1=O)C34` (centres unmarked) [Compound 6, Anastomosine], the melting point fell in the range of 220 to 224 °C. In addition, the inhibition at 1 µM in data set [1] was found to be 82.3%. In data set [2], this compound had an IC50 of 610 ± 7 nM. Further, the IC50 in [3] (Homo sapiens, SK-LU-1, 48 h) turned out to be 820 ± 60 nM. For the same compound, the inhibition at 1 µM in data set [3] (setting [11]) amounted to 100%. Further, in data set [3], the IC50 turned out to be 460 ± 50 nM and the “SI (selectivity index), SKLU-1” value was determined as 1.3. Further, the “Antiproliferative activity (%), SKLU-1” value in data set [3] (mean n = 2) is given as “very toxic”. For the same compound, the inhibition at 1 µM in [4] (setting [12]) was found to be 76.4%. Also, in data set [5], the “Edema” value was determined as 15.97 ± 0.61 mg and the “Inhibition of Edema (%)” value is given as “non-active”. For the same compound, in [6] (Homo sapiens, MCF7, primary screening at 1.0 μM, mean n = 2, NC = No cytotoxic, read-out: Antiproliferative activity (%), MCF-7), the inhibition at 1 µM worked out at 51.3%. In data set [6] (setting [13]), the “Antiproliferative activity (%), MCF-7” value is recorded as “moderately toxic”. The “DPPH inhibitory effect (%)” value in data set [7] is 8.2%. Further, in data set [8], the inhibition at 1 µM came out at 85.6%. Moreover, the inhibition at 1 µM in data set [9] (setting [14]) turned out to be 98.4%. For the same compound, the “Antiproliferative activity (%), U251” value in data set [9] (mean n = 2) is given as “very toxic”. Moreover, the “SI (selectivity index), U251” value in data set [9] stood at 2.3.
The compound `CC(C)C1=C(O)C(=O)C2=C(CC3OC(=O)C4(C)CCC=C(C2)C34)C1=O` (centres unmarked) [Compound 7, 7,20-Dihydroanastomosine] had a melting point of 223 to 227 °C. Also, the inhibition at 50 µM in data set [1] (primary screening at 50.0 μM, mean n = 2, NC = No cytotoxic, read-out: Antiproliferative activity (%), PC-3) worked out at 17.8%. Moreover, the inhibition at 50 µM in data set [3] (Homo sapiens, SK-LU-1, primary screening at 50.0 μM, mean n = 2, NC = No cytotoxic, read-out: Antiproliferative activity (%), SKLU-1) was found to be 46.5%. Besides, in [4] (Homo sapiens, K562, SRB assay, 48 h exposure, mean ± SD, read-out: IC50 antiproliferative activity, K562), the IC50 came to 31.2 ± 1.1 µM. For the same compound, the inhibition at 50 µM in data set [4] (Homo sapiens, K562, primary screening at 50.0 μM, mean n = 2, NC = No cytotoxic, read-out: Antiproliferative activity (%), K562) was 63.2%. In addition, the “Antiproliferative activity (%), K562” value in data set [4] (setting [15]) is “moderate toxicity”. In data set [5], the “Edema” value was found to be 15.50 ± 0.76 mg and the “Inhibition of Edema (%)” value is on record as “non-active”. Also, the IC50 in [6] (Homo sapiens, MCF7, SRB assay, 48 h exposure, mean ± SD, read-out: IC50 antiproliferative activity, MCF-7) was determined as 33.2 ± 1.2 µM. In [6] (Homo sapiens, MCF7, primary screening at 50.0 μM, mean n = 2, NC = No cytotoxic, read-out: Antiproliferative activity (%), MCF-7), the inhibition at 50 µM was 62.6%. Besides, in data set [6] (setting [15]), the “Antiproliferative activity (%), MCF-7” value is on record as “moderate toxicity”. Besides, the “Antiproliferative activity (%), FGH” value in data set [10] is “non-toxic”. Besides, the “DPPH inhibitory effect (%)” value in data set [7] amounted to 6.6%. Further, the inhibition at 50 µM in data set [8] (primary screening at 50.0 μM, mean n = 2, NC = No cytotoxic, read-out: Antiproliferative activity (%), HCT-15) came out at 26.8%. Moreover, the inhibition at 50 µM in data set [9] (Homo sapiens, U-251, primary screening at 50.0 μM, mean n = 2, NC = No cytotoxic, read-out: Antiproliferative activity (%), U251) came to 10.1%.
